This is an account of results in US20220380331A1, “TREATMENT OF CONDITIONS OF THE NERVOUS SYSTEM” (priority 2019, published 2022).

Assay [1] concerns acute contusive spinal cord injury. The experiment in a line: Basso, Beattie and Bresnahan (BBB) HL locomotor open field test after moderate T9 contusion injury. The class given is in vivo, rat. Particulars: daily oral treatment, 5 weeks after injury, vehicle ~10. How it is done:
Adult female Lister-hooded rats (200-250 g) were obtained from Charles River Laboratories (Canterbury, UK). Rats were housed in pairs in Central Biomedical Services (University of Leeds, UK) in a temperature-controlled environment in (20±1° C.), with a 12 hr light/dark cycle (lights on at 07:00). All procedures and experiments complied with the UK Animals (Scientific Procedures) Act 1986. Using isofluorane as an anaesthetic (5% in 02 for induction and 1-2% in 02 for the duration of the procedure), animals were shaved and sterilised. Vertebral segments T7-13 were exposed and a dorsal laminectomy was performed at T8. Vertebral levels T7 and T8 were stabilised whilst an Infinite Horizon impactor (Precision Systems and Instrumentation, LLC, Fairfax Station, Va.) was used to provide a 200 kdyn Cx (moderate injury) at the level of T9. Muscles were sutured and the skin was closed with autoclips. Analgesia ([…] Buprenorphine; 0.015 mg/kg; Henry Schein Animal Health, Dumfries, UK) and antibiotics (Baytril enrofloxacin; 2.5 mg/kg; Henry Schein Animal Heath, Dumfries, UK) were given via subcutaneous injection immediately post-surgery and for three days following surgery. […] HL locomotor ability was assessed at various time points throughout the acute SCI paradigm using the BBB HL locomotor scale. […] Each BBB test was simultaneously assessed by two individuals. […]

Assay [2] deals with spinal cord injury. The experiment in a line: 8 weeks PNNi with sustained rehabilitation after spinal cord injury, hindlimb motor recovery. Particulars: terminated 2-3 weeks before end, continued rehabilitative training. Format: in vivo, rat. From the text: FIG. […]): Limiting PNNi administration alongside sustained rehabilitation allows further hindlimb (HL) motor recovery. […] Bar graph showing the percentage of animals that were able to achieve forelimb-hindlimb (FL-HL) coordination at 9 weeks post-injury (WPI) at the end of PNNi administration, 10 and 12 WPI (B). […] (For groups, n=10 and 9 for 8 week PNNi and 8 week PNNi+T, respectively. Statistics, A, C-E: two-way mixed factorial ANOVA; significance levels: *p<0.05 **p<0.01 and ***p<0.001. A, C, D: Error bars are ±SEM.) Training was comprised of distributed practice quadrupedal interval treadmill training to provide task-specific rehabilitation. The first session commenced 7 days post injury (DPI) following locomotor behavioural tests described below. Daily training consisted of 10 minutes on the treadmill, followed by a 10 minute break before a final 10 minute session on the treadmill. Rats were trained five times a week at the maximal speed that they could maintain consecutive stepping for each 10-minute session on the treadmill. In order to enhance plasticity for effective functional recovery, we administer PNNi for 8 weeks in combination with 11 weeks of rehabilitation. Limiting PNNi administration alongside sustained rehabilitation allows further hindlimb (HL) motor but not sensory recovery (FIG. 12). […]

In assay [1], `Cc1cc(=O)oc2cc(O)ccc12` [PNNi, 4-methylumbelliferone] showed a BBB score of around 15 scores. The “hindlimb (HL) motor recovery” value in assay [2] is listed as “a further HL improvement was observed”.
